Data as given in patent publication US6022969A, “Compositions and methods for treating mast-cell mediated conditions” (AXYS Pharmaceuticals, Inc., priority 1995, dated 2000).

molecular target: tryptase; assay: In vitro tryptase inhibition assay (hydrolysis of tosyl-Gly-Pro-Lys-p-nitroanilide); type: biochemical, human; details: tosyl-Gly-Pro-Lys-p-nitroanilide 0.5 mM, pH 8.2, 1 h pre-incubation, room temperature
Description: The compounds to be assayed (approximately 1 mg) were dissolved in 200 μL dimethylsulfoxide (DMSO) and diluted 1:10 into buffer containing 50 millimolar (mM) Tris-HCl (pH 8.2), 100 mM sodium chloride, and 0.05% polyoxyethylenesorbitan monolaurate (Tween-20®, available from Sigma, St. Louis, Mo.). Seven additional threefold dilutions were made from the initial dilution into the same buffer supplemented with 10% DMSO. Aliquots (50 microliters, μL) from each of the eight dilutions in the series were transferred to individual wells in a 96-well U-bottom microtiter plate. 25 μL of a stock solution of tryptase was added to each well and the samples were mixed and incubated for one hour at room temperature (tryptase was purified from human lung and skin tissue preparations, HMC-1 (human mast cell line) and also obtained from commercial sources (ICN Biomedicals, Irvine, Calif.; Athens Research & Technology, Athens, Ga.)). […] The tryptase solution was prepared by placing 60 μg/mL of tryptase into solution with 10 mM MES (2-[N-Morpholino]ethane sulfonic acid) containing 2 mM CaCl2, 20% glycerol and 50 μg/mL heparin. The enzyme reaction was initiated with the addition of the synthetic tripeptide substrate, tosyl-Gly-Pro-Lys-p-nitroanilide (available from Sigma, 25 μL; 0.5 mM final concentration).
However, Ki ' varies with the enzyme concentration used in the enzyme assay. […] The y-intercept of a replot of IC50 (ordinate) versus tryptase concentration (abscissa) produces a value for Ki '.
The inhibition constants (Ki ', micromolar (μM)) were determined for the compounds of the present invention.

Compound	Ki [µM]
N=C(N)Nc1ccc(CNC(=O)N2CCN(C(=O)OCC34CC5CC(C3)CC(COC(=O)N3CCN(C(=O)NCc6ccc(NC(=N)N)cc6)CC3)(C5)C4)CC2)cc1 [Compound 31, cis-1,5-tetracyclo[3.3.1.1^3,7]decylenedimethylene bis[4-(4-guanidinobenzylcarbamoyl)-1-piperazinecarboxylate]]	0.0266
N=C(N)c1ccc(CCNC(=O)N2CCN(C(=O)O[C@H]3CCC[C@@H](OC(=O)N4CCN(C(=O)NCCc5ccc(C(=N)N)cc5)CC4)CCC3)CC2)cc1 [Compound 33, cis-1,5-cyclooctylene bis{4-[2-(4-amidinophenyl)ethylcarbamoyl)-1-piperazinecarboxylate}]	0.44
NCCCCCNC(=O)N1CCN(C(=O)O[C@H]2CCC[C@@H](OC(=O)N3CCN(C(=O)NCCCCCN)CC3)CCC2)CC1 [Compound 34, cis-1,5-cyclooctylene bis[4-(5-aminopentylcarbamoyl)-1-piperazinecarboxylate]]	0.011
NCCCCCCNC(=O)N1CCN(C(=O)O[C@H]2CCC[C@@H](OC(=O)N3CCN(C(=O)NCCCCCCN)CC3)CCC2)CC1 [Compound 35, cis-1,5-cyclooctylene bis[4-(6-aminohexylcarbamoyl)-1-piperazinecarboxylate]]	1.44
NCCC=CCNC(=O)N1CCN(C(=O)O[C@H]2CCC[C@@H](OC(=O)N3CCN(C(=O)NCC=CCCN)CC3)CCC2)CC1 [Compound 36, cis-1,5-cyclooctylene bis[4-(5-amino-2-pentenylcarbamoyl)-1-piperazinecarboxylate]]	0.125
NCCCCNC(=O)N1CCN(C(=O)O[C@H]2CCC[C@@H](OC(=O)N3CCN(C(=O)NCCCCN)CC3)CCC2)CC1 [Compound 37, cis-1,5-cyclooctylene bis[4-(4-aminobutylcarbamoyl)-1-piperazinecarboxylate]]	0.508
NCCOCCNC(=O)N1CCN(C(=O)O[C@H]2CCC[C@@H](OC(=O)N3CCN(C(=O)NCCOCCN)CC3)CCC2)CC1 [Compound 38, cis-1,5-cyclooctylene bis{4-[2-(2-aminoethoxy)ethylcarbamoyl]-1-piperazinecarboxylate}]	0.75
NC[C@H]1CC[C@H](NC(=O)OC2CCN(C(=O)O[C@H]3CCC[C@@H](OC(=O)N4CCC(OC(=O)N[C@H]5CC[C@H](CN)CC5)CC4)CCC3)CC2)CC1 [Compound 39, cis-1,5-cyclooctylene bis[4-(trans-4-aminomethylcyclohexylaminoformyloxy)-1-piperidinecarboxylate]]	0.858
CN(CCOC(=O)N[C@H]1CC[C@H](CN)CC1)C(=O)O[C@H]1CCC[C@@H](OC(=O)N(C)CCOC(=O)N[C@H]2CC[C@H](CN)CC2)CCC1 [Compound 40, cis-1,5-cyclooctylene bis[N-2-(trans-4-aminomethylcyclohexylaminoformyloxy)ethyl-N-methylaminocarboxylate]]	1.39
CN(CCOC(=O)NC[C@H]1CC[C@H](CN)CC1)C(=O)O[C@H]1CCC[C@@H](OC(=O)N(C)CCOC(=O)NC[C@H]2CC[C@H](CN)CC2)CCC1 [Compound 41, cis-1,5-cyclooctylene bis[N-2-(trans-4-aminomethylcyclohexylmethylaminoformyloxy)ethyl-N-methylaminocarboxylate}]	1.1
NC[C@H]1CC[C@H](CNC(=O)N2CCN(C(=O)OC[C@H]3CC[C@H](COC(=O)N4CCN(C(=O)NC[C@H]5CC[C@H](CN)CC5)CC4)CC3)CC2)CC1 [Compound 42, trans-1,4-cyclohexylenedimethylene bis[4-(trans-4-aminomethylcyclohexylmethylcarbamoyl)-1-piperazinecarboxylate]]	0.064
NC[C@H]1CC[C@H](CNC(=O)OC2CCN(C(=O)O[C@H]3CCC[C@@H](OC(=O)N4CCC(OC(=O)NC[C@H]5CC[C@H](CN)CC5)CC4)CCC3)CC2)CC1 [Compound 43, cis-1,5-cyclooctylene bis[4-(trans-4-aminomethylcyclohexylmethylaminoformyloxy)-1-piperidinecarboxylate]]	1.45
N=C(N)c1ccc(C(=O)NCC2CCN(C(=O)O[C@H]3CCC[C@@H](OC(=O)N4CCC(CNC(=O)c5ccc(C(=N)N)cc5)CC4)CCC3)CC2)cc1 [Compound 44, cis-1,5-cyclooctylene bis[4-(4-amidinobenzoylaminomethyl)-1-piperidinecarboxylate]]	0.008
N=C(N)C1CCN(C(=O)NCC2CCN(C(=O)O[C@H]3CCC[C@@H](OC(=O)N4CCC(CNC(=O)N5CCC(C(=N)N)CC5)CC4)CCC3)CC2)CC1 [Compound 45, cis-1,5-cyclooctylene bis[4-(4-amidinopiperid-1-ylcarbonylaminomethyl)-1-piperidinecarboxylate]]	0.114
N=C(N)Nc1ccc(CNC(=O)N2CCN(C(=O)C3CCCCC3C(=O)N3CCN(C(=O)NCc4ccc(NC(=N)N)cc4)CC3)CC2)cc1 (stereo not shown) [Compound 46, 1,2-cyclohexylene bis[4-(4-guanidinobenzylcarbamoyl)-1-piperazinecarboxadehyde]]	0.772
N=C(N)Nc1ccc(CNC(=O)N2CCN(C(=O)OCC34CCC(COC(=O)N5CCN(C(=O)NCc6ccc(NC(=N)N)cc6)CC5)(CC3)CC4)CC2)cc1 [Compound 47, 1,4-bicyclo[2.2.2]octylenedimethylene bis[4-(4-guanidinobenzylcarbamoyl)-1-piperazinecarboxylate]]	0.00042
N=C(N)Nc1ccc(C(=O)NCC2CCN(C(=O)O[C@H]3CCC[C@@H](OC(=O)N4CCC(CNC(=O)c5ccc(NC(=N)N)cc5)CC4)CCC3)CC2)cc1 [Compound 48, cis-1,5-cyclooctylene bis[4-(4-guanidinophenylcarbonylaminomethyl)-1-piperidinecarboxylate]]	2.3
N=C(N)Nc1ccc(CNC(=O)N2CCN(C(=O)OC[C@H]3CC[C@@H](COC(=O)N4CCN(C(=O)NCc5ccc(NC(=N)N)cc5)CC4)CC3)CC2)cc1 [Compound 49, cis-1,4-cyclohexylenedimethylene bis[4-(4-guanidinobenzylcarbamoyl)-1-piperazinecarboxylate]]	0.0034
N=C(N)Nc1ccc(CNC(=O)N2CCN(C(=O)O[C@H]3CCC[C@@H](OC(=O)N4CCN(C(=O)NCCCCCN)CC4)CCC3)CC2)cc1 [Compound 50, cis-5-[4-(5-aminopentylcarbamoyl)piperazin-1-ylformyloxy]cyclooctyl 4-(4-guanidinobenzylcarbamoyl)-1-piperazinecarboxylate]	0.00045
N=C(N)Nc1ccc(CNC(=O)N2CCN(C(=O)O[C@H]3CCC[C@@H](OC(=O)N4CCN(C(=O)NCCCCN)CC4)CCC3)CC2)cc1 [Compound 51, cis-5-[4-(4-aminobutylcarbamoyl)piperazin-1-ylformyloxy]cyclooctyl 4-(4-guanidinobenzylcarbamoyl)-1-piperazinecarboxylate]	0.0038
N=C(N)Nc1ccc(CNC(=O)N2CCN(C(=O)O[C@H]3CCC[C@@H](OC(=O)N4CCN(C(=O)NC[C@H]5CC[C@H](CN)CC5)CC4)CCC3)CC2)cc1 [Compound 52]	0.00048
N=C(N)Nc1ccc(CNC(=O)N2CCN(C(=O)O[C@H]3CCC[C@@H](OC(=O)N4CCN(C(=O)NCCCN)CC4)CCC3)CC2)cc1 [Compound 53, cis-5-[4-(3-aminopropylcarbamoyl)piperazin-1-ylformyloxy]cyclooctyl 4-(4-guanidinobenzylcarbamoyl)-1-piperazinecarboxylate]	0.044
N=C(N)Nc1ccc(CNC(=O)N2CCN(C(=O)O[C@H]3CCC[C@@H](OC(=O)N4CCN(C(=O)NCCCCCCN)CC4)CCC3)CC2)cc1 [Compound 54, cis-5-[4-(6-aminohexylcarbamoyl)piperazin-1-ylformyloxy]cyclooctyl 4-(4-guanidinobenzylcarbamoyl)-1-piperazinecarboxylate]	0.02
cis-1,5-tetracyclo[3.3.1.1^3,7 ]decylenedimethylene bis[4-(4-guanidinobenzylcarbamoyl)-1-piperazinecarboxaldehyde] [Compound 32]	0.0122
trans-1,4-cyclohexylene bis[4-(4-guanidinobenzylcarbamoyl)-1-piperazinecarboxaldehyde] [Compound 21]	0.0609
